The NIST ThermoML archive (doi:10.1021/je300819g)
Numbers after ± are expanded uncertainties.

Settings: Liquid, Ebulliometric method (Recirculating still)

**Q.** With CCNCCN [N-ethylethane-1,2-diamine] as the molecule, how does the “vapor or sublimation pressure” value (358 K) read?
**A.** 20.8 ± 1.2 kPa

**Q.** What about the “vapor or sublimation pressure” value (366.5 K) of the same molecule?
**A.** 29.6 ± 1.2 kPa

**Q.** What about the “vapor or sublimation pressure” value (374.1 K) of the same molecule?
**A.** 39.5 ± 1.2 kPa

**Q.** And the “vapor or sublimation pressure” value (380.3 K)?
**A.** 49.7 ± 1.3 kPa

**Q.** What about the “vapor or sublimation pressure” value (390.2 K) of the same molecule?
**A.** 69.5 ± 1.3 kPa

**Q.** What about the “vapor or sublimation pressure” value (398.3 K) of the same molecule?
**A.** 90.2 ± 1.3 kPa

**Q.** What about the “vapor or sublimation pressure” value (401.9 K) of the same molecule?
**A.** 101.2 ± 3.5 kPa

**Q.** And the “vapor or sublimation pressure” value (402.2 K)?
**A.** 101.5 ± 1.3 kPa
